Data taken from publication PMC12021657, “Rapid traversal of vast chemical space using machine learning-guided docking screens” (Nature Computational Science, 2025).

Experiments:
[1] = biological target: T1, Human D2R (Homo sapiens, UniProt P14416); assay: Human D2R competition radioligand binding ([3H]-spiperone, CHO-D2R #S20 membranes)
T1 construct: expressed in transfected cells
Description: Screening compounds (Supplementary Tables 10 and 12) were purchased from Enamine (compound purity >90%, which was confirmed by liquid chromatography−mass spectrometry and ^1H NMR spectroscopy for identified ligands; Supplementary Figs. 19–30). Human D2R competition binding experiments were carried out in polypropylene 96-well plates. Each well contained 20 µg of membranes from a CHO-D2R #S20 cell line (protein concentration of 4,322 µg ml^−1), 1.5 nM [^3H]-spiperone (54.3 Ci mmol^−1, 1 mCi ml^−1, PerkinElmer NET1187250UC) and the compound studied. Non-specific binding was determined in the presence of 10 µM sulpiride (Sigma Aldrich S8010). The reaction mixture (250 µl per well) was incubated at 25 °C for 120 min, after which 200 µl was transferred to a GF/C 96-well plate (Millipore) pretreated with 0.5% PEI and treated with binding buffer (50 mM Tris-HCl, 1 mM EDTA, 5 mM MgCl2, 5 mM KCl, 120 mM NaCl, pH 7.4). The reaction mixture was filtered and washed 4 times with 250 µl wash buffer (50 mM Tris-HCl, 0.9% NaCl, pH 7.4) before the addition of 30 μl Universol. The final measurement was performed in a microplate beta scintillation counter (Microbeta Trilux, PerkinElmer). Human A2AR competition binding experiments were carried out in a multiscreen GF/C 96-well plate (Millipore) pretreated with binding buffer (Tris-HCl 50 mM, EDTA 1 mM, MgCl2 10 mM, 2 U ml^−1 adenosine deaminase, pH 7.4). Each well was incubated with 5 μg of membranes from the HeLa-A2A cell line and prepared in our laboratory (lot A003/14-04-2019, protein concentration 2,058 μg ml^−1), 1 nM [^3H]-ZM241385 (50 Ci mmol^−1, 1 mCi ml^−1, ARC-ITISA 0884), and the compounds studied and standards. Non-specific binding was determined in the presence of NECA 50 μM (Sigma E2387). The reaction mixture (total volume of 200 μl per well) was incubated at 25 °C for 30 min, then filtered and washed 4 times with 250 μl wash buffer (Tris-HCl 50 mM, EDTA 1 mM, MgCl2 10 mM, pH 7.4), and measured in a microplate beta scintillation counter (Microbeta Trilux, PerkinElmer). Unless stated otherwise, three independent experiments were carried out to calculate Ki values.

[2] = biological target: T1, Human D2R; assay: Human D2R functional cAMP assay (HTRF, CHO-D2 #S20 cells, forskolin); type: cell-based
Description: Human D2R activity was measured by determining the amount of cAMP produced. Human D2R functional experiments were carried out in a CHO-D2 #S20 cell line. Five-thousand cells were seeded in 30 μl of Optimem (Invitrogen 11058) + 500 μM IBMX (Sigma 17018) on a 96-well black-and-white isoplate (PerkinElmer 6005030). Test compounds and dopamine were added in their corresponding wells and incubated for 10 min at 37 °C with gentle stirring (150 r.p.m.). Then, 10 µM forskolin (Sigma 17018) was added and incubated for 5 min at 37 °C with gentle stirring (150 r.p.m.). Reagents from the kit (#CISBIO 62AM4PEC) were added and incubated for 1 h at room temperature with gentle stirring (90 r.p.m.) and protected from light. HTRF (excitation wavelength: 320 nm; emission wavelengths: 620–665 nm) from each well was measured using a Tecan Infinite M1000 Pro. Two independent experiments were carried out to calculate EC50 and Emax values.

T1 sequence (P14416 whole entry): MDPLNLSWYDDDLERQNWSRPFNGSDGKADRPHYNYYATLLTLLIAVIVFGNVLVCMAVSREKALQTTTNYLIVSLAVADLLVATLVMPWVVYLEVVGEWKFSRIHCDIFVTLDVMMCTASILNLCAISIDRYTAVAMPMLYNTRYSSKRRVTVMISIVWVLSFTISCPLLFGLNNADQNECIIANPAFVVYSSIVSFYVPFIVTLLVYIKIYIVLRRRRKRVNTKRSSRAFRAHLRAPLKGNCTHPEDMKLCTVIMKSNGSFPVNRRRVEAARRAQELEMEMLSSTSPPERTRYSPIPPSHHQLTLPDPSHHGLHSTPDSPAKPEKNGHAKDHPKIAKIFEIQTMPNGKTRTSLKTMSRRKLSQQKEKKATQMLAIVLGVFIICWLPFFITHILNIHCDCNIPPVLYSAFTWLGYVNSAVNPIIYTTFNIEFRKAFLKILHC

SMILES: Cc1cnccc1CCN1CCC(Oc2ccccc2Cl)C1 (stereo not drawn) [Compound 2, Cc1cnccc1CCN2CCC(C2)Oc3ccccc3Cl]
- D2R radioligand displacement at 10 µM (%) ([1]; 10 µM compound, mean ± SEM of two technical replicates, listed as Z2436421891): 56 ± 2%
- inhibition at 10 µM ([1]; 2 h, 10 µM compound, mean ± SEM of two technical replicates, read-out: D2R radioligand displacement at 10 µM (%)): 56 ± 2%
- Ki ([1]; mean ± SEM from three independent experiments): 3.8 µM
- EC50 [2]: 14 µM
- functional character at D2R ([2]; cAMP assay): full agonists
- Emax ([2]; read-out: Emax (maximal effect)): 100%
